The text below walks through data of US20140057901A1, “XANTHINE DERIVATIVES, THE PREPARATION THEREOF AND THEIR USE AS PHARMACEUTICAL COMPOSITIONS” (Boehringer Ingelheim Pharma GmbH & Co. KG, priority 2001, published 2014).

The melting point is the temperature of the solid-liquid transition.

SMILES strings stand for the structures.

In turn, `CC(C)=CCn1c(N2CCC(CN)CC2)nc2c1c(=O)n(C)c(=O)n2C` [Example 2(105), 1,3-dimethyl-7-(3-methyl-2-buten-1-yl)-8-(4-aminomethyl-piperidin-1-yl)-xanthine] came in with a melting point of 110 to 112 °C.
